{
  "source": "the kinase profiling compilation of Christmann-Franck et al. (2016)",
  "key": {"[1]": {"molecular_target": "EPHA2 (human) (UniProt P29317)", "experiment": "radiometric filter-binding kinase assay"}, "[2]": {"molecular_target": "MAPK11 (human) (UniProt Q15759)", "sequence (Q15759 whole entry, looked up)": "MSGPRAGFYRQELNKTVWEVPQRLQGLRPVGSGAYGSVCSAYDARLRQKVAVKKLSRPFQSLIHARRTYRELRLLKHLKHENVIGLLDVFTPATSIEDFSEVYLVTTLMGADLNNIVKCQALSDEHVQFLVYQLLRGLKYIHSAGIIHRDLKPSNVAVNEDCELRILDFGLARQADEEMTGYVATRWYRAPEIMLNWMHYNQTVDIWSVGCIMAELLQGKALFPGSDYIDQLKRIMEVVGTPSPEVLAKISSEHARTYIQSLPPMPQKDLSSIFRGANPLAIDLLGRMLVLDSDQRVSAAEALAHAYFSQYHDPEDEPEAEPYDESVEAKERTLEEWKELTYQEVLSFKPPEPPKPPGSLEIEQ", "experiment": "radiometric filter-binding kinase assay"}, "[3]": {"molecular_target": "EPHB3 (human) (UniProt P54753)", "experiment": "radiometric filter-binding kinase assay"}, "[4]": {"molecular_target": "MKNK1 (human) (UniProt Q9BUB5)", "sequence (Q9BUB5 whole entry, looked up)": "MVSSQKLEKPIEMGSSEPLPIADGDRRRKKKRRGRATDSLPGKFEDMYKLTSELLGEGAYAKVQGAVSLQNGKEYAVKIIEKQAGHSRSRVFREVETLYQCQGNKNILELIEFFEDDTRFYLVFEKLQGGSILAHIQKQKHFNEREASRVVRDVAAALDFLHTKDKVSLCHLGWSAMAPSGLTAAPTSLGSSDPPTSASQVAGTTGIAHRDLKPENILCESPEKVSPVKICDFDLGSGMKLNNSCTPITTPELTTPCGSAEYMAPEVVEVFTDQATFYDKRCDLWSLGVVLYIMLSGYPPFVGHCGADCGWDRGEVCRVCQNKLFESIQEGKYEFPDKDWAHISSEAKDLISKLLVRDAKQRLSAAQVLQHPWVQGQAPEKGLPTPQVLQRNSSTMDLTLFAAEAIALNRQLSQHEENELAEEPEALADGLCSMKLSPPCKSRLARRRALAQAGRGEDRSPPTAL", "experiment": "radiometric filter-binding kinase assay"}, "[5]": {"molecular_target": "CAMKK2 (human) (UniProt Q96RR4)", "experiment": "radiometric filter-binding kinase assay"}, "[6]": {"molecular_target": "IRAK4 (human) (UniProt Q9NWZ3)", "sequence (Q9NWZ3 whole entry, looked up)": "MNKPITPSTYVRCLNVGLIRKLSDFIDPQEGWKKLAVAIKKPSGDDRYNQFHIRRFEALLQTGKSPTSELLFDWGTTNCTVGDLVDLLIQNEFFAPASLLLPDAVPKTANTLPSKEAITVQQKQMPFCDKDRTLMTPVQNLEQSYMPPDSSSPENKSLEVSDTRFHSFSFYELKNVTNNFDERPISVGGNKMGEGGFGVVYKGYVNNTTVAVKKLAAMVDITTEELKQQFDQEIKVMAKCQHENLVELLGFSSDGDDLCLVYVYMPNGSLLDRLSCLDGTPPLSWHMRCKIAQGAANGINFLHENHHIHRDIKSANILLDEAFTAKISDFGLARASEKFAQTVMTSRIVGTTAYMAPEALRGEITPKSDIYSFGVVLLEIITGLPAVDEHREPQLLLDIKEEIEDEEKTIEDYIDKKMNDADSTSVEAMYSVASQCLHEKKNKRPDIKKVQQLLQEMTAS", "experiment": "radiometric filter-binding kinase assay"}, "[7]": {"molecular_target": "PLK1 (human) (UniProt P53350)", "sequence (P53350 whole entry, looked up)": "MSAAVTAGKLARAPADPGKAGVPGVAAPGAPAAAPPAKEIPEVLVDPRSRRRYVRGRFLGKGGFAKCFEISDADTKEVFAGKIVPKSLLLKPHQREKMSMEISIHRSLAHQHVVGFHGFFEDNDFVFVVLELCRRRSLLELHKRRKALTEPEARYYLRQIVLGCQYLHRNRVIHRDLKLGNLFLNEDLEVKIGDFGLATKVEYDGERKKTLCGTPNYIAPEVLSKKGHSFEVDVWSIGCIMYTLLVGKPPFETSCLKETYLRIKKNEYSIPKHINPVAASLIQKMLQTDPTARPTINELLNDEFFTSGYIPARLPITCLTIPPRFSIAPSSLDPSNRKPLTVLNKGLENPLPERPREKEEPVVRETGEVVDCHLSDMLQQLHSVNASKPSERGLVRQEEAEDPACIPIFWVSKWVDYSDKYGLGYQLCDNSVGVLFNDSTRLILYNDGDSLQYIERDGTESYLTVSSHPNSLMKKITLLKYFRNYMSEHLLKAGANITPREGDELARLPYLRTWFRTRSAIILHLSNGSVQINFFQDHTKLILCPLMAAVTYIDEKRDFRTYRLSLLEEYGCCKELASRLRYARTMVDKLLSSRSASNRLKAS", "experiment": "radiometric filter-binding kinase assay"}, "[8]": {"molecular_target": "MAPKAPK2 (human) (UniProt P49137)", "experiment": "radiometric filter-binding kinase assay"}, "[9]": {"molecular_target": "MINK1 (human) (UniProt Q8N4C8)", "experiment": "radiometric filter-binding kinase assay"}, "[10]": {"molecular_target": "SRPK1 (human) (UniProt Q96SB4)", "sequence (Q96SB4 whole entry, looked up)": "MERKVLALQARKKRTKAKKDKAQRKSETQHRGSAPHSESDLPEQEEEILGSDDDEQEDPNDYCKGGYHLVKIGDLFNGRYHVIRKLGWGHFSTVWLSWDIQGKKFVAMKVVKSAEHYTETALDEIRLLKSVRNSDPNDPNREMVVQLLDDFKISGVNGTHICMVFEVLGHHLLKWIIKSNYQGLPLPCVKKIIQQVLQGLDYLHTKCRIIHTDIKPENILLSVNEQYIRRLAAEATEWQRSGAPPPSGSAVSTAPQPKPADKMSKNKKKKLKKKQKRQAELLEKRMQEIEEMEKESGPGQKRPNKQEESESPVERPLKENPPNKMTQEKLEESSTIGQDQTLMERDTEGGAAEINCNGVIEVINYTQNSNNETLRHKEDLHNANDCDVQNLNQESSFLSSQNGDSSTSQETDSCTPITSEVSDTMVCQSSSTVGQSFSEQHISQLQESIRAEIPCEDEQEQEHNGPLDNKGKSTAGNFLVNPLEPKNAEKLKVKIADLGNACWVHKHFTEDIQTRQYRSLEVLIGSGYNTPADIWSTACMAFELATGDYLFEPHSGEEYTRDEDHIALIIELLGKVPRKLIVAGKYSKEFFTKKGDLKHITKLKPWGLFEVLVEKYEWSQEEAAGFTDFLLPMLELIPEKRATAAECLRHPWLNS", "experiment": "radiometric filter-binding kinase assay"}, "[11]": {"molecular_target": "MYLK (human) (UniProt Q15746)", "sequence (Q15746 whole entry, looked up)": "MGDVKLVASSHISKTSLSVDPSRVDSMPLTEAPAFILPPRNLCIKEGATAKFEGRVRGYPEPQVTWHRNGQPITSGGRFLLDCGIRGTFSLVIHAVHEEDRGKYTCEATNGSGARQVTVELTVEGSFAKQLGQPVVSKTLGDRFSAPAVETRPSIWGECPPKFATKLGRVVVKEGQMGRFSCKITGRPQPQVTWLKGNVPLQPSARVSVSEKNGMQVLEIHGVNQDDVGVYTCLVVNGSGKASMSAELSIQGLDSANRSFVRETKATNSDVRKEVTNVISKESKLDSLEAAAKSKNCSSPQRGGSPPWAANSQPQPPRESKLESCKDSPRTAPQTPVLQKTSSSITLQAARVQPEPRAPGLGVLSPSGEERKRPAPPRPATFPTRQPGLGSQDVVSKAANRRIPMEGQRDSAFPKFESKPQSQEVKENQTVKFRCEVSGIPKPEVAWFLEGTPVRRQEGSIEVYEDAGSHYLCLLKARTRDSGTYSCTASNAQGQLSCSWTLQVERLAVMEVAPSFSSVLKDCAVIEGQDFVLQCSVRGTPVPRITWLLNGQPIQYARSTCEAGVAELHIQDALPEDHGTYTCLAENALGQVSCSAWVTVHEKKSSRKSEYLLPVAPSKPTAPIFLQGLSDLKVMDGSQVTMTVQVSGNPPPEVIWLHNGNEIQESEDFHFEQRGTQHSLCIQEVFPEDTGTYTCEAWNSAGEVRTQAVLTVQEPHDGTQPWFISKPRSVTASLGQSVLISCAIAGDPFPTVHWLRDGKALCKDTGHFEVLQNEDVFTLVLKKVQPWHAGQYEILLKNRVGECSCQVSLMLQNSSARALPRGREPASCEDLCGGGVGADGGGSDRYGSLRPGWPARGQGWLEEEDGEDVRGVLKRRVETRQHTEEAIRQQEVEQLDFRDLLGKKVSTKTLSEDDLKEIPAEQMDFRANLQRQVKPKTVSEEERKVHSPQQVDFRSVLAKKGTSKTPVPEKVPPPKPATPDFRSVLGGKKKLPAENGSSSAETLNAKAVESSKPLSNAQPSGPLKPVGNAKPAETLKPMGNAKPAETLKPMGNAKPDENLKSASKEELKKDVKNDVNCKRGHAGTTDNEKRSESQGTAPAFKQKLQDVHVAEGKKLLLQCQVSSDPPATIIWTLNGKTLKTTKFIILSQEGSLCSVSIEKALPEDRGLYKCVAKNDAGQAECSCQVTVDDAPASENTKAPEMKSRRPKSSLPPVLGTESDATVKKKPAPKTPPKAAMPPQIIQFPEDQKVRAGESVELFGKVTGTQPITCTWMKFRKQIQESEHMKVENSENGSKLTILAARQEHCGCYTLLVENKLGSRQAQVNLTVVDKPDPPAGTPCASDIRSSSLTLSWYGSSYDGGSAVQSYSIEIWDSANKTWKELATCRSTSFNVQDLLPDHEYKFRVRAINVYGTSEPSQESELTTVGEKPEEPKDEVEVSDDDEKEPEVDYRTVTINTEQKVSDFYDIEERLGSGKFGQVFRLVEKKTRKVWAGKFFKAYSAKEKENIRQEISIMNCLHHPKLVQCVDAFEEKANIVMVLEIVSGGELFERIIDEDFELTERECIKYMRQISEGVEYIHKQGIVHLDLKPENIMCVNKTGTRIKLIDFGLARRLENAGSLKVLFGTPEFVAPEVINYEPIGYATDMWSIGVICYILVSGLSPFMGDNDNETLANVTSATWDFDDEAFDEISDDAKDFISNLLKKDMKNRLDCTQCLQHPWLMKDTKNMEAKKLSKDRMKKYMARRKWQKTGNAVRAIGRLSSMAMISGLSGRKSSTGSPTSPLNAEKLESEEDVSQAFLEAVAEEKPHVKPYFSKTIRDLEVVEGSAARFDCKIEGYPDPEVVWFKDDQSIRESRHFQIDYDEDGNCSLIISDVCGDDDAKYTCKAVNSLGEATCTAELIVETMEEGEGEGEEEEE", "experiment": "radiometric filter-binding kinase assay"}, "[12]": {"molecular_target": "MST4 (human) (UniProt Q9P289)", "sequence (Q9P289 whole entry, looked up)": "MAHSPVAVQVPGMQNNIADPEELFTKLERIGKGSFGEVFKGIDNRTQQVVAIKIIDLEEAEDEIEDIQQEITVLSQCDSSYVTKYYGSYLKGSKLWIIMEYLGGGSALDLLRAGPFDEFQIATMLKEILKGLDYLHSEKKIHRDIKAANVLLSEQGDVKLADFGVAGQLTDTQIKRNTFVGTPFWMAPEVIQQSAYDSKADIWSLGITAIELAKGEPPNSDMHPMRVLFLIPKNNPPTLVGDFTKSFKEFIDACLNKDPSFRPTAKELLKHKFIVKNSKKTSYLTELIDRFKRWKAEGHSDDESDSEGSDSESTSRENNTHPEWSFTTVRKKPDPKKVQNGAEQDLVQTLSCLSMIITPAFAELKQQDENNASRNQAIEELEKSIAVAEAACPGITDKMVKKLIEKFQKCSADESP", "experiment": "radiometric filter-binding kinase assay"}, "[13]": {"molecular_target": "CSNK1G1 (human) (UniProt Q9HCP0)", "experiment": "KINOMEscan competition binding", "conditions": "compound 10.0 µM"}, "[14]": {"molecular_target": "CDK9 (human) (UniProt P50750)", "experiment": "KINOMEscan competition binding", "conditions": "compound 10.0 µM"}, "[15]": {"molecular_target": "GSK3A (human) (UniProt P49840)", "experiment": "KINOMEscan competition binding", "conditions": "compound 10.0 µM"}, "[16]": {"molecular_target": "CDK8 (human) (UniProt P49336)", "experiment": "KINOMEscan competition binding", "conditions": "compound 10.0 µM"}, "[17]": {"system": "PIK3CA (human), P42336 [C420R]", "experiment": "KINOMEscan competition binding", "conditions": "compound 10.0 µM"}, "[18]": {"molecular_target": "NEK9 (human) (UniProt Q8TD19)", "experiment": "KINOMEscan competition binding", "conditions": "compound 10.0 µM"}, "[19]": {"molecular_target": "SBK1 (human) (UniProt Q52WX2)", "experiment": "KINOMEscan competition binding", "conditions": "compound 10.0 µM"}, "[20]": {"molecular_target": "MAPK3 (human) (UniProt P27361)", "experiment": "KINOMEscan competition binding", "conditions": "compound 10.0 µM"}, "[21]": {"molecular_target": "CaMK1 (human) (UniProt Q14012)", "experiment": "KINOMEscan competition binding", "conditions": "compound 10.0 µM"}, "[22]": {"system": "ABL1 (human), P00519 [M351T]", "experiment": "KINOMEscan competition binding", "conditions": "compound 10.0 µM"}, "[23]": {"molecular_target": "TTK (human) (UniProt P33981)", "experiment": "KINOMEscan competition binding", "conditions": "compound 10.0 µM"}, "[24]": {"molecular_target": "AURKA (human) (UniProt O14965)", "experiment": "KINOMEscan competition binding"}, "[25]": {"molecular_target": "RPS6KA2 KD1 (human) (UniProt Q15349)", "experiment": "KINOMEscan competition binding", "conditions": "compound 10.0 µM"}, "[26]": {"molecular_target": "MST1R (human) (UniProt Q04912)", "experiment": "KINOMEscan competition binding", "conditions": "compound 10.0 µM"}, "[27]": {"molecular_target": "SIK3 (human) (UniProt Q9Y2K2)", "experiment": "KINOMEscan competition binding", "conditions": "compound 10.0 µM"}, "[28]": {"molecular_target": "FLT1 (human) (UniProt P17948)", "experiment": "KINOMEscan competition binding", "conditions": "compound 10.0 µM"}, "[29]": {"molecular_target": "STK3 (human) (UniProt Q13188)", "experiment": "KINOMEscan competition binding", "conditions": "compound 10.0 µM"}, "[30]": {"molecular_target": "MAP2K6 (human) (UniProt P52564)", "experiment": "KINOMEscan competition binding", "conditions": "compound 10.0 µM"}, "[31]": {"molecular_target": "SRPK1 (human) (UniProt Q96SB4)", "experiment": "KINOMEscan competition binding", "conditions": "compound 10.0 µM"}, "[32]": {"molecular_target": "PIK3C2B (human) (UniProt O00750)", "experiment": "KINOMEscan competition binding", "conditions": "compound 10.0 µM"}, "[33]": {"molecular_target": "GAK (human) (UniProt O14976)", "experiment": "KINOMEscan competition binding", "conditions": "compound 10.0 µM"}, "[34]": {"molecular_target": "MAP2K3 (human) (UniProt P46734)", "experiment": "KINOMEscan competition binding", "conditions": "compound 10.0 µM"}, "[35]": {"molecular_target": "HIPK2 (human) (UniProt Q9H2X6)", "experiment": "KINOMEscan competition binding", "conditions": "compound 10.0 µM"}, "[36]": {"molecular_target": "AXL (human) (UniProt P30530)", "experiment": "KINOMEscan competition binding", "conditions": "compound 10.0 µM"}, "[37]": {"system": "MET (human), P08581 [M1250T]", "experiment": "KINOMEscan competition binding", "conditions": "compound 10.0 µM"}, "[38]": {"molecular_target": "NEK4 (human) (UniProt P51957)", "experiment": "KINOMEscan competition binding", "conditions": "compound 10.0 µM"}},
  "data": [
    {"smiles": "COc1cc(C(=O)N2CCC(N3CCN(C)CC3)CC2)ccc1Nc1ncc2c(n1)N(C)c1ccccc1C(=O)N2C", "values": [
      {"measurement": "residual activity", "setting": "[1]; compound 1.0 µM", "value": 98, "unit": "%"},
      {"measurement": "residual activity", "setting": "[1]; compound 10.0 µM", "value": 91, "unit": "%"},
      {"measurement": "residual activity", "setting": "[2]; compound 1.0 µM", "value": 73, "unit": "%"},
      {"measurement": "residual activity", "setting": "[2]; compound 10.0 µM", "value": 45, "unit": "%"},
      {"measurement": "residual activity", "setting": "[3]; compound 1.0 µM", "value": 71, "unit": "%"},
      {"measurement": "residual activity", "setting": "[3]; compound 10.0 µM", "value": 71, "unit": "%"},
      {"measurement": "residual activity", "setting": "[4]; compound 1.0 µM", "value": 86, "unit": "%"},
      {"measurement": "residual activity", "setting": "[4]; compound 10.0 µM", "value": 53, "unit": "%"},
      {"measurement": "residual activity", "setting": "[5]; compound 1.0 µM", "value": 89, "unit": "%"},
      {"measurement": "residual activity", "setting": "[5]; compound 10.0 µM", "value": 53, "unit": "%"},
      {"measurement": "residual activity", "setting": "[6]; compound 1.0 µM", "value": 93, "unit": "%"},
      {"measurement": "residual activity", "setting": "[6]; compound 10.0 µM", "value": 94, "unit": "%"},
      {"measurement": "IC50", "setting": "[7]", "value": "> 100", "unit": "µM"},
      {"measurement": "residual activity", "setting": "[7]; compound 1.0 µM", "value": 73, "unit": "%"},
      {"measurement": "residual activity", "setting": "[7]; compound 10.0 µM", "value": 35, "unit": "%"},
      {"measurement": "residual activity", "setting": "[8]; compound 1.0 µM", "value": 86, "unit": "%"},
      {"measurement": "residual activity", "setting": "[8]; compound 10.0 µM", "value": 84, "unit": "%"},
      {"measurement": "residual activity", "setting": "[9]; compound 1.0 µM", "value": 99, "unit": "%"},
      {"measurement": "residual activity", "setting": "[9]; compound 10.0 µM", "value": 108, "unit": "%"},
      {"measurement": "residual activity", "setting": "[10]; compound 1.0 µM", "value": 98, "unit": "%"},
      {"measurement": "residual activity", "setting": "[10]; compound 10.0 µM", "value": 110, "unit": "%"},
      {"measurement": "IC50", "setting": "[11]", "value": 12.2, "unit": "µM"},
      {"measurement": "residual activity", "setting": "[11]; compound 1.0 µM", "value": 76, "unit": "%"},
      {"measurement": "residual activity", "setting": "[11]; compound 10.0 µM", "value": 25, "unit": "%"},
      {"measurement": "residual activity", "setting": "[12]; compound 1.0 µM", "value": 90, "unit": "%"},
      {"measurement": "residual activity", "setting": "[12]; compound 10.0 µM", "value": 87, "unit": "%"},
      {"measurement": "kinase still bound, per cent of control", "setting": "[13]", "value": 100, "unit": "%"},
      {"measurement": "residual activity", "setting": "[14]", "value": 100, "unit": "%"},
      {"measurement": "kinase still bound, per cent of control", "setting": "[15]", "value": 100, "unit": "%"},
      {"measurement": "residual activity", "setting": "[16]", "value": 100, "unit": "%"},
      {"measurement": "kinase still bound, per cent of control", "setting": "[17]", "value": 89, "unit": "%"},
      {"measurement": "kinase still bound, per cent of control", "setting": "[18]", "value": 100, "unit": "%"},
      {"measurement": "kinase still bound, per cent of control", "setting": "[19]", "value": 100, "unit": "%"},
      {"measurement": "kinase still bound, per cent of control", "setting": "[20]", "value": 100, "unit": "%"},
      {"measurement": "kinase still bound, per cent of control", "setting": "[21]", "value": 55, "unit": "%"},
      {"measurement": "kinase still bound, per cent of control", "setting": "[22]", "value": 94, "unit": "%"},
      {"measurement": "kinase still bound, per cent of control", "setting": "[23]", "value": 28, "unit": "%"},
      {"measurement": "Kd", "setting": "[24]", "value": 1.6, "unit": "µM"},
      {"measurement": "kinase still bound, per cent of control", "setting": "[24]; compound 10.0 µM", "value": 1.2, "unit": "%"},
      {"measurement": "kinase still bound, per cent of control", "setting": "[25]", "value": 83, "unit": "%"},
      {"measurement": "kinase still bound, per cent of control", "setting": "[26]", "value": 98, "unit": "%"},
      {"measurement": "kinase still bound, per cent of control", "setting": "[27]", "value": 100, "unit": "%"},
      {"measurement": "kinase still bound, per cent of control", "setting": "[28]", "value": 100, "unit": "%"},
      {"measurement": "kinase still bound, per cent of control", "setting": "[29]", "value": 71, "unit": "%"},
      {"measurement": "kinase still bound, per cent of control", "setting": "[30]", "value": 83, "unit": "%"},
      {"measurement": "kinase still bound, per cent of control", "setting": "[31]", "value": 94, "unit": "%"},
      {"measurement": "kinase still bound, per cent of control", "setting": "[32]", "value": 100, "unit": "%"},
      {"measurement": "kinase still bound, per cent of control", "setting": "[33]", "value": 16, "unit": "%"},
      {"measurement": "kinase still bound, per cent of control", "setting": "[34]", "value": 75, "unit": "%"},
      {"measurement": "kinase still bound, per cent of control", "setting": "[35]", "value": 88, "unit": "%"},
      {"measurement": "kinase still bound, per cent of control", "setting": "[36]", "value": 100, "unit": "%"},
      {"measurement": "kinase still bound, per cent of control", "setting": "[37]", "value": 96, "unit": "%"},
      {"measurement": "kinase still bound, per cent of control", "setting": "[38]", "value": 95, "unit": "%"}
    ]}
  ]
}
